The results in this text go back to ChEMBL document CHEMBL3797159, “The discovery and the structural basis of an imidazo[4,5-b]pyridine-based p21-activated kinase 4 inhibitor” (Bioorg Med Chem Lett, 2016).

Activity calls are given as the source filed them. The calls are words filed in the database; no cut-off is given here. Where only a bound is given, the exact number is not on record here.

Data set [1] addresses T1, Serine/threonine-protein kinase PAK 4 (Homo sapiens, UniProt O96013). Nature of the data set: Binding affinity to recombinant human N-terminal His6-tagged PAK4 kinase domain (300 to 591 residues) expressed in Escherichia coli BL21(DE3) cells at 50 uM by circular dichroism analysis. A general note: CD spectra are sensitive to the conformation of chiral molecules.
Target sequence in this assay (O96013 whole entry, looked up, the tested form may be a part): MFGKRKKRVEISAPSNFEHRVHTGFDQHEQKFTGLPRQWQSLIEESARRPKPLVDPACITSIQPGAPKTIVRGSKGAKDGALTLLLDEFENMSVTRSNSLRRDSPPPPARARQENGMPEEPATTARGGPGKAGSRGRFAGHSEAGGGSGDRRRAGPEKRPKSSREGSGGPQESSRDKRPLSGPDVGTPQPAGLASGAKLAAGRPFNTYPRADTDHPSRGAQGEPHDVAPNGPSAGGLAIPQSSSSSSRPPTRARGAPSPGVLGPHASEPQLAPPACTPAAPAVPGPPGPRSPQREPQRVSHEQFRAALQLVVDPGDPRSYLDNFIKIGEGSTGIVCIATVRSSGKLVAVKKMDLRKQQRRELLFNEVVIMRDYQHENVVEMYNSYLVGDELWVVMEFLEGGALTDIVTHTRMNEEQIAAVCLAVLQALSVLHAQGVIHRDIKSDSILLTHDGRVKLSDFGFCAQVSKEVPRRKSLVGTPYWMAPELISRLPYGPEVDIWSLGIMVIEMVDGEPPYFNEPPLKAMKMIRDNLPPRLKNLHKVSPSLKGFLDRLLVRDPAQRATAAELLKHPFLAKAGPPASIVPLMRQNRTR
Data set [2] addresses T1, Serine/threonine-protein kinase PAK 4. In words: Inhibition of human PAK4 using myelin basic protein as substrate incubated for 40 mins by scintillation counting method in presence of gamma[33P]ATP.
Target sequence in this assay (O96013 whole entry, the tested form may be a part): as the sequence (O96013 whole entry, looked up, the tested form may be a part) above
Data set [3] can be described thus: Solubility of compound. The data set is classed as physicochemical.
Data set [4] concerns the target Aurora kinase B (Homo sapiens) (UniProt Q96GD4). In words: Inhibition of human recombinant Aurora-B expressed in sf9 cells using kemptide as substrate by radiometric assay in presence of gamma[32P]ATP.
The target in data set [5] is T2, Aurora kinase C (Homo sapiens) (UniProt Q9UQB9).
T2 sequence (whole entry): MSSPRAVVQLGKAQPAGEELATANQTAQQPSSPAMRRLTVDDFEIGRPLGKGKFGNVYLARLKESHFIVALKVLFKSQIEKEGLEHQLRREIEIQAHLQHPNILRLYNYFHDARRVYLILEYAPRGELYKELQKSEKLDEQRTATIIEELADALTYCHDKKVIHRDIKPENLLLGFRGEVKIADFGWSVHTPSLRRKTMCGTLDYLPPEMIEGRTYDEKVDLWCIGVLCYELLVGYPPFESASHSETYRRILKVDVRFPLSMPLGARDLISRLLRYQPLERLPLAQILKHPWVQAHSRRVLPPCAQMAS
Nature of the data set: Inhibition of human Aurora-C by radiometric assay.

The target in data set [6] is CDK4/Cyclin D3 (Homo sapiens) (UniProt P11802+P30281). Nature of the data set: Inhibition of human recombinant CDK4/Cyclin D3 expressed in sf21 cells using Rb (773 to 928 residues) as substrate by radiometric assay in presence of gamma[32P]ATP.
The target in data set [7] is DNA-dependent protein kinase catalytic subunit (Homo sapiens) (UniProt P78527). Nature of the data set: Inhibition of human DNA-PK by radiometric assay.
For data set [8], the target named is T3, Dual specificity tyrosine-phosphorylation-regulated kinase 2 (Homo sapiens) (UniProt Q92630).
T3 sequence (whole entry): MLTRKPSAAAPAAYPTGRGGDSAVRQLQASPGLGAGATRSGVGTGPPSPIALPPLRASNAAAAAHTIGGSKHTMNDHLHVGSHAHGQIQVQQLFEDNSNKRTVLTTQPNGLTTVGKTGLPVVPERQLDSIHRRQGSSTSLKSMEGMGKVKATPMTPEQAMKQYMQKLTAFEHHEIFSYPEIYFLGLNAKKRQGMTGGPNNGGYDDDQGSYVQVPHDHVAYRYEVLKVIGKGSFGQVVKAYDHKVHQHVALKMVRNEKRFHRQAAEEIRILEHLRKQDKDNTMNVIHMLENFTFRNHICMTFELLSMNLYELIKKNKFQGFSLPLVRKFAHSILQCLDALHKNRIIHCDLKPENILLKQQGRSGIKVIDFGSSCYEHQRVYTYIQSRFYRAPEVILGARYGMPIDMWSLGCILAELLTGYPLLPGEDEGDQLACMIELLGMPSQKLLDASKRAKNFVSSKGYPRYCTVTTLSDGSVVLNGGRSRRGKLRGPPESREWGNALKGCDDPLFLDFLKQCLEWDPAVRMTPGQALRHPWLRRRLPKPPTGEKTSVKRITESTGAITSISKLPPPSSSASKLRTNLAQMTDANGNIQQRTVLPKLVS
Nature of the data set: Inhibition of human DYRK2 by radiometric assay.

The target of data set [9] is T1, Serine/threonine-protein kinase PAK 4. The following applies: 50 uM.
Target sequence in this assay (O96013 whole entry, looked up, the tested form may be a part): as the sequence (O96013 whole entry, looked up, the tested form may be a part) above
Description: Binding affinity to PAK4 (unknown origin) assessed as change in melting temperature at 50 uM by circular dichroism analysis

Aurora kinase B (Homo sapiens), sequence (Q96GD4 whole entry): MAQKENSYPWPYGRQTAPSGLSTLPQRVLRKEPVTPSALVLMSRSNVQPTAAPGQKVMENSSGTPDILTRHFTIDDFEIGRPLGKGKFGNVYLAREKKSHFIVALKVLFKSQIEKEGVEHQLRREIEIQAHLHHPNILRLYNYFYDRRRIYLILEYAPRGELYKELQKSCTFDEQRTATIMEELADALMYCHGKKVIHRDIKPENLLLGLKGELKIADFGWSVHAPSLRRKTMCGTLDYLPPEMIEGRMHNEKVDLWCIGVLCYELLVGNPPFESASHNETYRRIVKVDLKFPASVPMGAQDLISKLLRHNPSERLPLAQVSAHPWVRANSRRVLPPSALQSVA
DNA-dependent protein kinase catalytic subunit (Homo sapiens), sequence (P78527 whole entry): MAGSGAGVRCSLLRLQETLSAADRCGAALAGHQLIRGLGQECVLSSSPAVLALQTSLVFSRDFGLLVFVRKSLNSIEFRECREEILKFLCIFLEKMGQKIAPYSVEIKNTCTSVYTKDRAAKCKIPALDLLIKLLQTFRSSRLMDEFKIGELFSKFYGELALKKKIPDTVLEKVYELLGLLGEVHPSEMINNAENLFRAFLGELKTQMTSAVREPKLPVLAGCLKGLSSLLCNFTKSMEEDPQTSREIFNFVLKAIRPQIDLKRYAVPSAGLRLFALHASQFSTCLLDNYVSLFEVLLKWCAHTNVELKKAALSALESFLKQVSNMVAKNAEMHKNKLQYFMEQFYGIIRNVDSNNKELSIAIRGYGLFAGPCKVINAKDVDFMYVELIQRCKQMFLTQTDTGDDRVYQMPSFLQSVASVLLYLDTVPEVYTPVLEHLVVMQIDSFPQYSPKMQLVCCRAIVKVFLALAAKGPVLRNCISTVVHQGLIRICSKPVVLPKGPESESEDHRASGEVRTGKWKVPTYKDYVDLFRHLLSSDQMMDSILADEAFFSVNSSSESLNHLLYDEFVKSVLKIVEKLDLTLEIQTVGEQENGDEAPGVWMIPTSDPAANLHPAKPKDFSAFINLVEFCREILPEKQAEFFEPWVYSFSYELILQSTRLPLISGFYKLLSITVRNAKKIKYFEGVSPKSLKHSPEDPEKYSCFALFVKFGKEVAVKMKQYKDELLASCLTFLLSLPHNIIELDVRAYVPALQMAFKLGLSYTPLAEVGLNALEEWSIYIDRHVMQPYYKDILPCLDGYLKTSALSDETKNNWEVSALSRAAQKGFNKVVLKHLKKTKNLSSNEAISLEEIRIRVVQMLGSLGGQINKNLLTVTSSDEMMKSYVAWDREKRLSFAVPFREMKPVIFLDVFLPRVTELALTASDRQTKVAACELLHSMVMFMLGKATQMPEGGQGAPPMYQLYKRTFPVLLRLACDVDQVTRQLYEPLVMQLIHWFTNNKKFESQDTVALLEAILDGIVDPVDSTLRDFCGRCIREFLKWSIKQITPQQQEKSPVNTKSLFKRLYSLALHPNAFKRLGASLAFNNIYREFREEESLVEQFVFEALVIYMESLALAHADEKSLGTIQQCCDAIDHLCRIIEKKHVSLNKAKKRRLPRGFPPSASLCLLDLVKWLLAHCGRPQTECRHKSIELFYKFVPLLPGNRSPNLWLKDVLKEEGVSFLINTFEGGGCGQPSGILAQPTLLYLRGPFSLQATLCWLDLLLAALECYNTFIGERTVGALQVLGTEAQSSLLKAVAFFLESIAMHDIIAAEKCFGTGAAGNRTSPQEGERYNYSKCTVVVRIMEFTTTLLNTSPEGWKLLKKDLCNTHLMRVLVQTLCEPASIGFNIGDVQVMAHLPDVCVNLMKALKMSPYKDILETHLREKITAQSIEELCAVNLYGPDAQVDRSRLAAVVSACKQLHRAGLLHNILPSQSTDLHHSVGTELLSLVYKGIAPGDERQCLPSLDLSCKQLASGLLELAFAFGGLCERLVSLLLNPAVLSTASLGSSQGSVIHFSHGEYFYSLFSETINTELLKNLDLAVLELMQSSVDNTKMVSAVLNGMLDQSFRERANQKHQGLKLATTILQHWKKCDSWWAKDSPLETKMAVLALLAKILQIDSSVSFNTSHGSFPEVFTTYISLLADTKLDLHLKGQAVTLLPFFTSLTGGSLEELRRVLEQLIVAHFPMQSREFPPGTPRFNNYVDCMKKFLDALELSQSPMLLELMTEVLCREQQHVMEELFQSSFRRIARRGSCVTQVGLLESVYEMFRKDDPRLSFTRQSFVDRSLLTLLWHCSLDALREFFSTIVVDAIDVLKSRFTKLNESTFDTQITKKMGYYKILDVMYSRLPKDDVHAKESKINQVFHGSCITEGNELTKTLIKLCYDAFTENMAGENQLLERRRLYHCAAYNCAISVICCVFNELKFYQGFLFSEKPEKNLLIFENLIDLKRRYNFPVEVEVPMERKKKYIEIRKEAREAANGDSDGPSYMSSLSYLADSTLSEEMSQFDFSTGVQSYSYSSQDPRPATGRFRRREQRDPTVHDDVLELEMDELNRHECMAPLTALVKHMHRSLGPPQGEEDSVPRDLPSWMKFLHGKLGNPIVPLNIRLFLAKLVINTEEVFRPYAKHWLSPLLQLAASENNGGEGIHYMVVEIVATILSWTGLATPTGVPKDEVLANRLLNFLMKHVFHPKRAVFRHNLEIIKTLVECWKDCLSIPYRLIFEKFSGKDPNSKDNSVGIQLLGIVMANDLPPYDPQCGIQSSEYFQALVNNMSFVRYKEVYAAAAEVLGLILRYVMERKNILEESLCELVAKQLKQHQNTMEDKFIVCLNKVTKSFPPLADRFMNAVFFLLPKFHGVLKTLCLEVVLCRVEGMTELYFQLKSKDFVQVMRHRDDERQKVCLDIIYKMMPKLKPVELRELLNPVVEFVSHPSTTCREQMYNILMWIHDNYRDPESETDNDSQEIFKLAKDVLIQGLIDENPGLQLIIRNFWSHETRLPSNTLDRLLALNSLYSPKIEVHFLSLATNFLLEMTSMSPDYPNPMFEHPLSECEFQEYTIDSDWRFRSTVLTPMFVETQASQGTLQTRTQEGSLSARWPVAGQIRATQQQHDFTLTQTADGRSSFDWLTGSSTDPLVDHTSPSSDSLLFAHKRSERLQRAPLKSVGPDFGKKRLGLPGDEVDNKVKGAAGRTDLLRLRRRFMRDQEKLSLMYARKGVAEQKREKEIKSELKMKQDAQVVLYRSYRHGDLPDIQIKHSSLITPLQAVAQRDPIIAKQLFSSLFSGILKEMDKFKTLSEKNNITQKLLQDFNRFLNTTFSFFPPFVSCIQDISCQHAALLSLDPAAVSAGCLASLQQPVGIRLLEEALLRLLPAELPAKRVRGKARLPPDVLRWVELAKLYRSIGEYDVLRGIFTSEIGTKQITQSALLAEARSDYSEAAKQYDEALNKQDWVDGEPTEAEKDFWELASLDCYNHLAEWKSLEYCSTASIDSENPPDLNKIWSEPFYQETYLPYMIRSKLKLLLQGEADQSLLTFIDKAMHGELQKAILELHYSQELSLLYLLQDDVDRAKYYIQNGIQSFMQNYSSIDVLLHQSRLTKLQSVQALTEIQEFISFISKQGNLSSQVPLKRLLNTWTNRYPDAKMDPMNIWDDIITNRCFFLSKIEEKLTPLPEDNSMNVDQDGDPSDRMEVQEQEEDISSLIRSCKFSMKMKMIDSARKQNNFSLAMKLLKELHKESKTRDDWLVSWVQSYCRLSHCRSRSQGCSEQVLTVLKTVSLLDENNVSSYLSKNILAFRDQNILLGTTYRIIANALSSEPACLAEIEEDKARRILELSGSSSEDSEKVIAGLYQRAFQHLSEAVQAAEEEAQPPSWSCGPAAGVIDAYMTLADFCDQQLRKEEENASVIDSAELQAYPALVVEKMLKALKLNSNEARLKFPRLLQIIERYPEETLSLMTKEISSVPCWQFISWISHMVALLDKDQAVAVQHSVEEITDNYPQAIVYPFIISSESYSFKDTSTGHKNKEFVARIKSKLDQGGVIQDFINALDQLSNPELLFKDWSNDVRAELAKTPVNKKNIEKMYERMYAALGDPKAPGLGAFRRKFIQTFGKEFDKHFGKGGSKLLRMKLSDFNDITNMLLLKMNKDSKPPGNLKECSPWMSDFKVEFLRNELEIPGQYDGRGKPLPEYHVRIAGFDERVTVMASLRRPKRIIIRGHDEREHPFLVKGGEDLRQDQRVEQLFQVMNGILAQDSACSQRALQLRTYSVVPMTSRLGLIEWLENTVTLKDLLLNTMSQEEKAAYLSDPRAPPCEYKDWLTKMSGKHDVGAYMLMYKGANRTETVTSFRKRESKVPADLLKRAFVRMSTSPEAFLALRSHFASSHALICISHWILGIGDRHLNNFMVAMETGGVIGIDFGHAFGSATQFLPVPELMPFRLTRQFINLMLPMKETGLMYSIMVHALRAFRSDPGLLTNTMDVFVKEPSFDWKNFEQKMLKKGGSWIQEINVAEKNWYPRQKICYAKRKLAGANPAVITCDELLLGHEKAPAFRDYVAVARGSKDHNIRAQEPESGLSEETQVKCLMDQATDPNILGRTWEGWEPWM

For orientation: ΔTm means the change in melting temperature against a reference sample. In the case of `COc1nc(NCCc2c[nH]c3ccccc23)nc(Nc2ccc3[nH]ncc3c2)n1`, in data set [1], the ΔTm was 6 °C.
By IC50 is commonly meant the concentration that gives 50% inhibition. Broadly, the solubility is the concentration that dissolves in the medium under given conditions. Consider `CC(C)c1nn(C)cc1-c1nc2cc(Br)cnc2[nH]1`, for which the IC50 in [2] was 8.7 µM. Also, the solubility in data set [3] is < 100 µM. Besides, the inhibition entry in data set [4] and in [5] was “Active” each time. For the same compound, the inhibition result in data set [6], in data set [7] and in [8] was “inactive” each time. In addition, in data set [9], the Tm came to 48 °C.
Take `Cc1nc(Nc2n[nH]c3c2CN(C(=O)N[C@H](CN(C)C)c2ccccc2)C3(C)C)c2sccc2n1`: the ΔTm in data set [1] was 16 °C.
